According to ChEMBL document CHEMBL1201862, “PubChem BioAssay data set” (2004):
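Cultured in 96-well plates, cells were exposed to test compound for 48 hours across five concentrations. At the GI50, growth is halved.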 Active and inactive are the calls of the source. Rule as the data show it: active = GI50 up to about 1.1 µM and inactive = higher.

Legend:
Test in all cases: DTP human tumour cell line panel, 48 h
DMS-114 = test system: DMS-114
SW-620 = test system: SW-620
UACC-257 = test system: UACC-257
HOP-18 = test system: HOP-18
RXF 393 = test system: RXF 393
NCI-H522 = test system: NCI-H522
SNB-19 = test system: SNB-19
U-251 = test system: U-251
SK-OV-3 = test system: SK-OV-3
A549 = test system: A549
RXF 631 = test system: RXF 631
HCT-116 = test system: HCT-116
DLD-1 = test system: DLD-1
OVCAR-8 = test system: OVCAR-8
XF498 = test system: XF498
HCT-15 = test system: HCT-15
786-0 = test system: 786-0
SF-268 = test system: SF-268
NCI-H460 = test system: NCI-H460
SN12C = test system: SN12C
A498 = test system: A498
Malme-3M = test system: Malme-3M
DMS-273 = test system: DMS-273
OVCAR-3 = test system: OVCAR-3
OVCAR-5 = test system: OVCAR-5
KM-20L2 = test system: KM-20L2
SK-MEL-5 = test system: SK-MEL-5
SNB-75 = test system: SNB-75
CCRF-CEM = test system: CCRF-CEM
SF-539 = test system: SF-539
KM12 = test system: KM12
EKVX = test system: EKVX
HT-29 = test system: HT-29
NCI-H226 = test system: NCI-H226
NCI-H23 = test system: NCI-H23
UACC-62 = test system: UACC-62
HL-60 = test system: HL-60
OVCAR-4 = test system: OVCAR-4
LXFL 529 = test system: LXFL 529
UO-31 = test system: UO-31
HCC 2998 = test system: HCC 2998
LOX IMVI = test system: LOX IMVI
HOP-92 = test system: HOP-92
COLO 205 = test system: COLO 205
M19-MEL = test system: M19-MEL
SF-295 = test system: SF-295
TK-10 = test system: TK-10
SK-MEL-2 = test system: SK-MEL-2
ACHN = test system: ACHN
SK-MEL-28 = test system: SK-MEL-28
HOP-62 = test system: HOP-62
IGROV-1 = test system: IGROV-1
SNB-78 = test system: SNB-78
M14 = test system: M14
RPMI-8226 = test system: RPMI-8226
K562 = test system: K562
CAKI-1 = test system: CAKI-1
MOLT-4 = test system: MOLT-4
SR = test system: SR

CCCCCCCCCCCCCCNCC(OC)OC
GI50 (DMS-114): 14 µM (inactive)
GI50 (SW-620): 16.1 µM (inactive)
GI50 (UACC-257): 19.4 µM (inactive)
GI50 (HOP-18): 13.3 µM (inactive)
GI50 (RXF 393): 14.7 µM (inactive)
GI50 (NCI-H522): 16.9 µM (inactive)
GI50 (SNB-19): 17.9 µM (inactive)
GI50 (U-251): 16.3 µM (inactive)
GI50 (SK-OV-3): 18.7 µM (inactive)
GI50 (A549): 19.5 µM (inactive)
GI50 (RXF 631): 15.2 µM (inactive)
GI50 (HCT-116): 13.1 µM (inactive)
GI50 (DLD-1): 14.6 µM (inactive)
GI50 (OVCAR-8): 20.1 µM (inactive)
GI50 (XF498): 16.7 µM (inactive)
GI50 (HCT-15): 11.8 µM
GI50 (786-0): 16 µM (inactive)
GI50 (SF-268): 18.5 µM (inactive)
GI50 (NCI-H460): 17.8 µM (inactive)
GI50 (SN12C): 15.1 µM (inactive)
GI50 (A498): 19.8 µM (inactive)
GI50 (Malme-3M): 19.8 µM (inactive)
GI50 (DMS-273): 17.5 µM (inactive)
GI50 (OVCAR-3): 17.3 µM (inactive)
GI50 (OVCAR-5): 14.6 µM (inactive)
GI50 (KM-20L2): 14.4 µM (inactive)
GI50 (SK-MEL-5): 15.2 µM (inactive)
GI50 (SNB-75): 13.8 µM (inactive)
GI50 (CCRF-CEM): 9.18 µM (inactive)
GI50 (SF-539): 16.9 µM (inactive)
GI50 (KM12): 13.3 µM (inactive)
GI50 (EKVX): 18.2 µM (inactive)
GI50 (HT-29): 3.78 µM (inactive)
GI50 (NCI-H226): 17.1 µM (inactive)
GI50 (NCI-H23): 20.2 µM (inactive)
GI50 (UACC-62): 19.6 µM (inactive)
GI50 (HL-60): 5.25 µM (inactive)
GI50 (OVCAR-4): 15.1 µM (inactive)
GI50 (LXFL 529): 16.3 µM (inactive)
GI50 (UO-31): 12.8 µM (inactive)
GI50 (HCC 2998): 18.6 µM (inactive)
GI50 (LOX IMVI): 16.4 µM (inactive)
GI50 (HOP-92): 10.2 µM (inactive)
GI50 (COLO 205): 14.4 µM (inactive)
GI50 (M19-MEL): 18.1 µM (inactive)
GI50 (SF-295): 19.7 µM (inactive)
GI50 (TK-10): 17.4 µM (inactive)
GI50 (SK-MEL-2): 16.4 µM (inactive)
GI50 (ACHN): 16.2 µM (inactive)
GI50 (SK-MEL-28): 16.5 µM (inactive)
GI50 (HOP-62): 16.7 µM (inactive)
GI50 (IGROV-1): 17 µM (inactive)
GI50 (SNB-78): 17.4 µM (inactive)
GI50 (M14): 14.1 µM (inactive)

COC(=O)c1sc(C(=O)OC)c2c1C[S+]([O-])C2
GI50 (DMS-114): > 100 µM (inactive)
GI50 (SW-620): > 100 µM (inactive)
GI50 (UACC-257): > 100 µM (inactive)
GI50 (HOP-18): > 100 µM (inactive)
GI50 (RXF 393): > 100 µM (inactive)
GI50 (NCI-H522): > 100 µM (inactive)
GI50 (SNB-19): > 100 µM (inactive)
GI50 (U-251): > 100 µM (inactive)
GI50 (SK-OV-3): > 100 µM (inactive)
GI50 (A549): > 100 µM (inactive)
GI50 (RXF 631): > 100 µM (inactive)
GI50 (HCT-116): > 100 µM (inactive)
GI50 (DLD-1): > 100 µM (inactive)
GI50 (OVCAR-8): > 100 µM (inactive)
GI50 (XF498): 38.7 µM (inactive)
GI50 (RPMI-8226): > 100 µM (inactive)
GI50 (HCT-15): > 100 µM
GI50 (786-0): > 100 µM (inactive)
GI50 (SF-268): > 100 µM (inactive)
GI50 (A498): > 100 µM (inactive)
GI50 (Malme-3M): > 100 µM (inactive)
GI50 (DMS-273): > 100 µM (inactive)
GI50 (OVCAR-3): > 100 µM (inactive)
GI50 (OVCAR-5): > 100 µM (inactive)
GI50 (KM-20L2): > 100 µM (inactive)
GI50 (SK-MEL-5): > 100 µM (inactive)
GI50 (SNB-75): > 100 µM (inactive)
GI50 (CCRF-CEM): > 100 µM (inactive)
GI50 (SF-539): > 100 µM (inactive)
GI50 (KM12): > 100 µM (inactive)
GI50 (EKVX): > 100 µM (inactive)
GI50 (HT-29): > 100 µM (inactive)
GI50 (NCI-H226): > 100 µM (inactive)
GI50 (NCI-H23): > 100 µM (inactive)
GI50 (UACC-62): > 100 µM (inactive)
GI50 (HL-60): > 100 µM (inactive)
GI50 (OVCAR-4): > 100 µM (inactive)
GI50 (LXFL 529): > 100 µM (inactive)
GI50 (UO-31): > 100 µM (inactive)
GI50 (HCC 2998): > 100 µM (inactive)
GI50 (LOX IMVI): > 100 µM (inactive)
GI50 (HOP-92): > 100 µM (inactive)
GI50 (COLO 205): > 100 µM (inactive)
GI50 (M19-MEL): > 100 µM (inactive)
GI50 (SF-295): > 100 µM (inactive)
GI50 (TK-10): > 100 µM (inactive)
GI50 (K562): > 100 µM (inactive)
GI50 (SK-MEL-2): > 100 µM (inactive)
GI50 (CAKI-1): > 100 µM (inactive)
GI50 (SK-MEL-28): > 100 µM (inactive)
GI50 (MOLT-4): > 100 µM (inactive)
GI50 (IGROV-1): > 100 µM (inactive)
GI50 (SNB-78): > 100 µM (inactive)
GI50 (M14): > 100 µM (inactive)

CCOC(=O)C1C(NC(N)=O)N(Cc2ccccc2)C(=O)N1Cc1ccccc1 (stereo not drawn)
GI50 (DMS-114): > 100 µM (inactive)
GI50 (SW-620): > 100 µM (inactive)
GI50 (UACC-257): > 100 µM (inactive)
GI50 (HOP-18): > 100 µM (inactive)
GI50 (NCI-H522): > 100 µM (inactive)
GI50 (SNB-19): > 100 µM (inactive)
GI50 (U-251): 17.3 µM (inactive)
GI50 (SK-OV-3): > 100 µM (inactive)
GI50 (A549): > 100 µM (inactive)
GI50 (RXF 631): > 100 µM (inactive)
GI50 (HCT-116): > 100 µM (inactive)
GI50 (DLD-1): > 100 µM (inactive)
GI50 (OVCAR-8): > 100 µM (inactive)
GI50 (XF498): > 100 µM (inactive)
GI50 (RPMI-8226): > 100 µM (inactive)
GI50 (HCT-15): > 100 µM
GI50 (786-0): > 100 µM (inactive)
GI50 (SF-268): > 100 µM (inactive)
GI50 (NCI-H460): > 100 µM (inactive)
GI50 (Malme-3M): > 100 µM (inactive)
GI50 (DMS-273): > 100 µM (inactive)
GI50 (OVCAR-3): > 100 µM (inactive)
GI50 (OVCAR-5): 29.3 µM (inactive)
GI50 (KM-20L2): 41.3 µM (inactive)
GI50 (SK-MEL-5): > 100 µM (inactive)
GI50 (SNB-75): > 100 µM (inactive)
GI50 (CCRF-CEM): > 100 µM (inactive)
GI50 (SF-539): > 100 µM (inactive)
GI50 (KM12): > 100 µM (inactive)
GI50 (EKVX): > 100 µM (inactive)
GI50 (HT-29): > 100 µM (inactive)
GI50 (NCI-H23): > 10 µM (inactive)
GI50 (UACC-62): > 100 µM (inactive)
GI50 (HL-60): > 100 µM (inactive)
GI50 (OVCAR-4): > 100 µM (inactive)
GI50 (LXFL 529): > 100 µM (inactive)
GI50 (UO-31): > 100 µM (inactive)
GI50 (HCC 2998): > 100 µM (inactive)
GI50 (SR): > 100 µM (inactive)
GI50 (LOX IMVI): > 100 µM (inactive)
GI50 (HOP-92): > 100 µM (inactive)
GI50 (COLO 205): > 100 µM (inactive)
GI50 (M19-MEL): > 100 µM (inactive)
GI50 (SF-295): > 100 µM (inactive)
GI50 (TK-10): > 100 µM (inactive)
GI50 (K562): > 100 µM (inactive)
GI50 (SK-MEL-2): > 100 µM (inactive)
GI50 (ACHN): > 100 µM (inactive)
GI50 (CAKI-1): > 100 µM (inactive)
GI50 (SK-MEL-28): > 100 µM (inactive)
GI50 (MOLT-4): > 100 µM (inactive)
GI50 (HOP-62): > 100 µM (inactive)
GI50 (IGROV-1): > 100 µM (inactive)
GI50 (SNB-78): 15.4 µM (inactive)
GI50 (M14): > 100 µM (inactive)
